According to patent publication US7897568B2, “Compositions for treatment of cancer” (priority 2006, dated 2011):
Where a SMILES comes first, the peptide text is derived from it. Where no end group is shown, it is not given here.

What was measured:
[1] = target: GST (Schistosoma japonicum, UniProt P08515); assay: Surface plasmon resonance control with GST as analyte; type: binding; details: SPR, GST as the analyte
Procedure: Kinetics of the SNCG-ANK interaction were determined. […] Sensograms were deconvoluted globally, using a simultaneous fit for both association (ka, M^−1s^−1) and dissociation (kd, s^−1).
The binding interaction between the ANK peptide and GST-SNCG was examined in real time using a BIACORE 3000 biosensor system (Biacore Inc., NJ). Because of the relatively large amount required in this experiment, GST-SNCG, which expresses at least 2 times better than SNCG, was used. […] The changes in the refractive index at the sensor chip surface with respect to time are scaled in resonance units (RU). For proteins, every 1000 RU corresponds to a surface mass change of ˜1 ng/mm^2. All experiments were performed at 25° C. using research grade carboxymethylated dextran matrix (CM5) sensor chips (Biacore Inc.). […] Prior to all analyses the GST-SNCG and ANK peptide preparations were dialyzed against the running buffer to minimize bulk effects. Blank analyte injections (running buffer only) were subtracted from the specific binding isotherms to further minimize instrument noise.

[2] = target: T1, SNCG (Homo sapiens, UniProt O76070); assay: Far-UV circular dichroism of SNCG titrated with ANK peptide, calculated secondary structure; parameters: The SNCG coding region was amplified from the human cDNA clone; GST (N, cleaved yes); made in house; host or cells: Escherichia coli BL21 (DE3)
T1 sequence (O76070 whole entry): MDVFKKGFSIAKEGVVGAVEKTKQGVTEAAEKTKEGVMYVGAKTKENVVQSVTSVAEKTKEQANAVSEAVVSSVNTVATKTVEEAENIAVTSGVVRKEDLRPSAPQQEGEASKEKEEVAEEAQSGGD
Procedure: FIGS. 1B and 1C provide far-UV circular dichroism (CD) spectra of SNCG (10 μM) with titration of ANK peptide […] (SEQ ID NO:1) at concentrations of 2 μM, 12 μM and 24 μM (FIG. 1B) and 25 μM, 50 μM and 100 μM (FIG. 1C). […] Spectra patterns correspond to random coil structures.
Titration of SNCG with the ANK peptide also gave rise to far-UV spectra characteristic of an unfolded protein (FIG. 1B) and produced no significant changes in calculated secondary structure.
The SNCG-ANK interaction was monitored using far-UV CD recorded on a rapid-scanning monochromator fitted with a CD module (RSM 1000, Olis Inc., Bogart Ga.). Samples containing 0.145 mg/ml SNCG were dialyzed into 5 mM sodium phosphate buffer, pH 7.0 for data acquisition. Spectra were averaged from 12 scans recorded at 25° C. The baseline was corrected by subtracting the spectra measured under identical conditions for the remaining buffer after dialysis. Peptide was reconstituted into flow-through buffer after dialysis and used for titration. Molar ellipticity [θ] was calculated according to the formula [θ]=[θ]×100/(nlc), where n represents the number of amino acids in the protein, l represents the path length of the cuvette in centimeters and c represents the concentration in millimolar. Percentage secondary structure was calculated using the web-based program CDNN (Bohm et al. Protein Eng. 1992 5:191-195).

[3] = target: T2, GST-SNCG (Homo sapiens, UniProt O76070); assay: GST pull-down of EGFP-ANK with GST-SNCG; type: binding; details: FIG. 5D, GST as control
T2 construct: The SNCG coding region was amplified from the human cDNA clone; made in house; host or cells: Escherichia coli BL21 (DE3)
T2 sequence (O76070 whole entry): as above
Text: (§1) FIGS. 5A through 5D show co-localization, co-immunoprecipitation (co-IP) and GST pull down experiments, using an enhance green fluorescent protein (EGFP)-ANK fusion protein, which confirm that SNCG associates with the ANK peptide in vivo. FIG. 5A is a western blot depicting detection of EGFP-ANK expression in COS7 cells. Lanes 2 and 3 were samples transfected with different clones, cl-4 and cl-8, respectively, of pEGFP-ANK plasmid. In FIG. 5B, MCF7-SNCG cells were transfected with pEGFP-ANK, fixed on a cover slip, permeabilized and probed with anti-SNCG and anti-GFP antibodies to observe co-localization. Fluorescent cells were visualized using an ×100 objective (oil) on an inverted confocal microscope (Leica). FIGS. 5C and 5D are western blots showing association of SNCG and ANK peptide as evidenced by co-IP of SNCG with EGFP-ANK in MCF7-SNCG and MCF7-neo cells. In these experiments, MCF7-SNCG and MCF7-neo cells were transfected with pEGFP-ANK or pEGFP plasmids. […]
GST-SNCG (20 μg) protein or GST alone was added to a pre-equilibrated slurry of glutathione-sepharose 4B and incubated for 60 minutes. […] After extensive washes, the beads were collected, boiled in sample buffer, separated on 12% SDS gel and analyzed by western blotting. […]

[4] = target: T1, SNCG; assay: Co-localization of EGFP-ANK with SNCG by confocal microscopy; type: cell-based; parameters: expressed in transfected cells; host or cells: MCF7-SNCG (MCF7 stably expressing SNCG); details: green fluorescent signals in transfected cells
Text: as §1
To further examine the utility of the ANK peptide as a therapeutic tool against SNCG-caused drug resistance, this peptide was expressed in breast cancer cells. ANK peptide nucleotide sequences were cloned into pEGFP-C2 vector (pEGFP-ANK), and ANK peptide was expressed as a fusion protein with its amino-terminal linked to EGFP protein. […]

Chain of GST (P08515 whole entry): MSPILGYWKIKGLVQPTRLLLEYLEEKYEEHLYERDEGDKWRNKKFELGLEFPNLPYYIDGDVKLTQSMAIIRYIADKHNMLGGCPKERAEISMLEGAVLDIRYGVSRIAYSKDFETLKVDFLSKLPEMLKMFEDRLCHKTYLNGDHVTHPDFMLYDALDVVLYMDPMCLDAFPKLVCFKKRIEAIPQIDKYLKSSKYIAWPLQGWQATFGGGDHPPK

intracellular localization relative to SNCG [4]	Compound	binding of GST analyte to immobilized ANK peptide [1]	Structure (%) Antiparallel ([2]; SNCG + 2.0 μM ANK Peptide) [%]	Structure (%) Beta-Turn ([2]; SNCG + 2.0 μM ANK Peptide) [%]	Structure (%) Helix ([2]; SNCG + 2.0 μM ANK Peptide) [%]	Structure (%) Parallel ([2]; SNCG + 2.0 μM ANK Peptide) [%]	Structure (%) Random Coil ([2]; SNCG + 2.0 μM ANK Peptide) [%]	Structure (%) Antiparallel ([2]; SNCG + 12 μM ANK Peptide) [%]	Structure (%) Beta-Turn ([2]; SNCG + 12 μM ANK Peptide) [%]	Structure (%) Helix ([2]; SNCG + 12 μM ANK Peptide) [%]	Structure (%) Parallel ([2]; SNCG + 12 μM ANK Peptide) [%]	Structure (%) Random Coil ([2]; SNCG + 12 μM ANK Peptide) [%]	Structure (%) Antiparallel ([2]; SNCG + 24 μM ANK Peptide) [%]	Structure (%) Beta-Turn ([2]; SNCG + 24 μM ANK Peptide) [%]	Structure (%) Helix ([2]; SNCG + 24 μM ANK Peptide) [%]	Structure (%) Parallel ([2]; SNCG + 24 μM ANK Peptide) [%]	Structure (%) Random Coil ([2]; SNCG + 24 μM ANK Peptide) [%]	pull down by GST-SNCG [3]
	CC[C@H](C)[C@H](NC(=O)[C@H](CS)NC(=O)CNC(=O)[C@H](CC(C)C)NC(=O)[C@H](Cc1c[nH]cn1)NC(=O)CNC(=O)[C@H](Cc1c[nH]cn1)NC(=O)[C@H](CCC(N)=O)NC(=O)[C@H](CO)NC(=O)[C@H](C)NC(=O)[C@@H](NC(=O)[C@H](Cc1c[nH]cn1)NC(=O)[C@H](CC(C)C)NC(=O)[C@H](C)NC(=O)[C@H](CO)NC(=O)[C@H](CC(N)=O)NC(=O)CNC(=O)[C@H](CCCCN)NC(C)=O)C(C)C)C(=O)N[C@@H](CCC(N)=O)C(=O)N[C@H](C(=O)N[C@@H](CC(C)C)C(=O)N[C@H](C(=O)N[C@@H](CCCNC(=N)N)C(=O)N[C@@H](Cc1ccc(O)cc1)C(=O)NCC(=O)N[C@@H](C)C(=O)N[C@@H](CC(N)=O)C(=O)N[C@H](C(=O)N[C@H](C(=O)N[C@@H](CCSC)C(=O)N[C@@H](CCC(N)=O)C(=O)N[C@@H](CC(N)=O)C(=O)N[C@@H](Cc1c[nH]cn1)C(=O)NCC(N)=O)[C@@H](C)O)C(C)C)C(C)C)[C@@H](C)O [ANK peptide] (Ac-KGNSALHVASQHGHLGCIQTLVRYGANVTMQNHG-NH2)	No binding	9.00	17.6	29.2	10.3	36.0	8.80	17.4	30.0	10.0	35.4	8.70	17.3	30.4	9.90	35.0	
co-localized with SNCG in the cytoplasm	EGFP-ANK: ANK peptide expressed as a fusion protein with its amino-terminal linked to EGFP protein, approximately 37 kDa ({EGFP}-KGNSALHVASQHGHLGCIQTLVRYGANVTMQNHG)																	SNCG is capable of immunoprecipitating EGFP-ANK
